{"source": "patent US4307108A", "about": "“Method for lowering sorbitol levels using spiro-imides” (Pfizer Inc., priority 1979, dated 1981)", "key": {"[1]": {"tested_on": "sorbitol accumulation in the sciatic nerve of streptozotocinized (i.e., diabetic) rats", "experiment": "reduction/inhibition of sorbitol accumulation in the sciatic nerve of acutely streptozotocinized (diabetic) rats", "format": "in vivo", "conditions": "for Percent Inhibition (%): oral, 4, 8 and 24 hours after streptozotocin, sorbitol in sciatic nerve measured 27 hours after induction of diabetes, vs. untreated animal", "method": "The activity of the compounds of the present invention, as agents for the control of chronic diabetic complications, is determined by their ability to successfully pass one or more of the following standard biological and/or pharmacological tests, viz., (1) measuring their ability to reduce or inhibit sorbitol accumulation in the sciatic nerve of acutely streptozotocinized (i.e., diabetic) rats; (2) measuring their ability to reverse already-elevated sorbitol levels in the sciatic nerve and lens of chronic streptozotocin-induced diabetic rats; (3) measuring their ability to prevent or inhibit galactitol formation in the lens of acutely galactosemic rats, and (4) measuring their ability to delay cataract formation and reduce the severity of lens opacities in chronic galactosemic rats.\nThe following spiro-imide compounds of Preparation C and Examples 1-5, respectively, were tested for their ability to reduce or inhibit sorbitol accumulation in the sciatic nerve of streptozotocinized (i.e., diabetic) rats essentially by the procedure described in U.S. Pat. No. 3,821,383. In the present study, the amount of sorbitol accumulation in the sciatic nerves was measured 27 hours after induction of diabetes. The compounds were administered orally at the dose levels indicated 4, 8 and 24 hours following the administration of streptozotocin. The results obtained in this manner are presented below in terms of percent inhibition (%) afforded by the test compound as compared to the case where no compound was administered (i.e., the untreated animal where sorbitol levels normally rise from approximately […]. tissue to as high as […]. tissue in the 27-hour test period): […]"}, "[2]": {"experiment": "toxic side effects in diabetic rats on oral administration", "format": "in vivo", "conditions": "dose level as low as 2.5 mg./kg.", "from_the_text": "As previously indicated, the spiro-imide compounds of this invention reduce lens sorbitol levels in diabetic subjects. […] The other compounds of this invention also cause similar results. Furthermore, the herein described compounds can be administered by either the oral or parenteral routes of administration without causing any significant untoward pharmacological side reactions in the subjects to whom they are so administered. These compounds are ordinarily administered in dosages ranging from about 0.25 mg. to about 25 mg. per kg. of body weight per day, although variations will necessarily occur depending upon the actual condition of the subject being treated and the particular route of administration chosen."}, "water solubility of salt": {"experiment": "water solubility of salt", "format": "physicochemical", "conditions": "sodium salt, amorphous powder, freeze-dried"}}, "note": "Counter-ions that a name gives are not always drawn."}
{"smiles": "O=C1CC2(CCOc3ccc(Cl)cc32)C(=O)N1", "note": "(stereo not drawn) [Product of Ex. 2, 6-chloro-2,3-dihydro-spiro-[4H-1-benzopyran-4,3'-pyrrolidine]-2',5'-dione]", "values": [{"measurement": "Percent Inhibition (%)", "setting": "[1]; 5.0 mg./kg.", "value": 13, "unit": "%"}]}
{"smiles": "O=C1CC2(CCCc3sccc32)C(=O)N1", "note": "(stereo not drawn) [Product of Ex. 4, 6,7-dihydro-spiro-[5H-benzo(b)thiophene-4,3'-pyrrolidine]-2',5'-dione]", "values": [{"measurement": "Percent Inhibition (%)", "setting": "[1]; 25 mg./kg.", "value": 51, "unit": "%"}]}
{"smiles": "O=C1CCC2(CCCc3ccccc32)C(=O)N1", "note": "(stereo not drawn) [Product of Ex. 5, 3,4-dihydro-spiro-[2H-naphthalene-1,3'-piperidine]-2',6'-dione]", "values": [{"measurement": "Percent Inhibition (%)", "setting": "[1]; 25 mg./kg.", "value": 23, "unit": "%"}]}
{"smiles": "O=C1CC2(CCCc3ccccc32)C(=O)N1", "note": "(stereo not drawn) [Product of Prep. C, 3,4-dihydro-spiro-[2H-naphthalene-1,3'-pyrrolidine]-2',5'-dione]", "values": [{"measurement": "Percent Inhibition (%)", "setting": "[1]; 5.0 mg./kg.", "value": 46, "unit": "%"}]}
{"smiles": "O=C1CC2(CCc3ccccc32)C(=O)N1", "note": "(stereo not drawn) [Product of Ex. 1, 2,3-dihydro-spiro-[1H-indene-1,3'-pyrrolidine]-2',5'-dione]", "values": [{"measurement": "Percent Inhibition (%)", "setting": "[1]; 2.5 mg./kg.", "value": 28, "unit": "%"}, {"measurement": "inhibit the formation of sorbitol levels in the sciatic nerve of diabetic rats", "setting": "[1]; oral, dose level as low as 2.5 mg./kg., result in words", "value": "to a significant degree"}, {"measurement": "substantial signs of toxic side effects", "setting": "[2]", "value": "without showing any substantial signs of toxic side effects"}]}
{"smiles": "O=C1CC2(Cc3ccccc3C2)C(=O)N1", "note": "[Product of Ex. 3, 2,3-dihydro-spiro-[1H-indene-2,3'-pyrrolidine]-2',5'-dione]", "values": [{"measurement": "Percent Inhibition (%)", "setting": "[1]; 25 mg./kg.", "value": 33, "unit": "%"}]}
{"smiles": "O=C1CC2(CCc3ccccc32)C(=O)N1", "note": "(stereo not drawn) [sodium salt of 3,4-dihydro-spiro-[1H-indene-1,3'-pyrrolidino]-2',5'-dione]", "values": [{"measurement": "solubility in water", "setting": "water solubility of salt", "value": "freely-soluble in water"}]}
